Measured values published in patent US9296741B2, “Bromodomain inhibitors” (priority 2012, dated 2016).

Key:
[1] = target: human BRD4 second bromodomain (BDII_E352-M457) (Homo sapiens (Human), UniProt O60885); test: TR-FRET bromodomain binding assay, BRD4 second bromodomain
[2] = Human liver microsome stability assay; assay type: in vitro ADME; settings: both sexes, human, microsomes, pH 7.4
[3] = Rat liver microsome stability assay; assay type: in vitro ADME; settings: rat liver microsomes (male Sprague-Dawley), 0.5 μM test compound, 0.25 mg/mL microsomal protein, pH 7.4, 37° C.; read-out: Stability in rat liver microsomes (t1/2 in minutes)
[4] = test system: breast cancer cell line MX-1; test: MX-1 cell line proliferation assay; assay type: cell-based, human; settings: Homo sapiens, MX1, 72 h; MX-1 cells, 3-day proliferation, Cell Titer Glo; read-out: Cellular proliferation: EC50
[5] = Mouse liver microsome stability assay; assay type: in vitro ADME; settings: male, CD1, mouse, microsomes, pH 7.4
[6] = target: human BRD4 first bromodomain (BDI_K57-E168) (Homo sapiens (Human), UniProt O60885); test: TR-FRET bromodomain binding assay, BRD4 first bromodomain

Row | Ki [1] [µM] | half-life at 0.5 μM [2] [min] | half-life at 0.5 μM [3] [min] | EC50 [4] [µM] | half-life at 0.5 μM [5] [min] | Ki [6] [µM] | Compound
1 | 0.0035 | 5 | 4 | 0.0169 | 3 | 0.0058 | Cn1cc(-c2cc(S(=O)(=O)N3CCCC3)ccc2OCC2CC2)c2cc[nH]c2c1=O [Example 302, 4-[2-(cyclopropylmethoxy)-5-(pyrrolidin-1-ylsulfonyl)phenyl]-6-methyl-1,6-dihydro-7H-pyrrolo[2,3-c]pyridin-7-one]
2 | 0.0071 | 42 | 69 | 0.335 | > 120 | 0.0039 | CCS(=O)(=O)c1ccc(OC2CCN(C(C)=O)CC2)c(-c2cn(C)c(=O)c3[nH]ccc23)c1 [Example 303, 4-{2-[(1-acetylpiperidin-4-yl)oxy]-5-(ethylsulfonyl)phenyl}-6-methyl-1,6-dihydro-7H-pyrrolo[2,3-c]pyridin-7-one]
3 | 0.0257 | 1 | 2 | 0.11 | 2 | 0.327 | Cn1cc(-c2cc(S(=O)(=O)N3CCc4ccccc43)ccc2OCC2CC2)c2cc[nH]c2c1=O [Example 305, 4-[2-(cyclopropylmethoxy)-5-(2,3-dihydro-1H-indol-1-ylsulfonyl)phenyl]-6-methyl-1,6-dihydro-7H-pyrrolo[2,3-c]pyridin-7-one]
4 | 0.0639 | 11 | 9 | 0.0516 | 3 | 0.0822 | Cn1cc(-c2cc(CS(=O)(=O)c3ccccc3)ccc2Oc2ccc(F)cc2F)c2cc[nH]c2c1=O [Example 306, 4-{2-(2,4-difluorophenoxy)-5-[(phenylsulfonyl)methyl]phenyl}-6-methyl-1,6-dihydro-7H-pyrrolo[2,3-c]pyridin-7-one]
5 | 0.0029 | 3 | 3 | 0.122 | 2 | 0.0024 | Cn1cc(-c2cc(S(=O)(=O)N3CCCC3)ccc2OCC2CC2(F)F)c2cc[nH]c2c1=O (stereo not drawn) [Example 307, 4-{2-[(2,2-difluorocyclopropyl)methoxy]-5-(pyrrolidin-1-ylsulfonyl)phenyl}-6-methyl-1,6-dihydro-7H-pyrrolo[2,3-c]pyridin-7-one]
6 | 0.0169 | > 120 | > 120 | 0.0859 | > 120 | 0.0306 | Cn1cc(-c2cc(S(C)(=O)=O)ccc2Oc2ccccc2CCO)c2cc[nH]c2c1=O [Example 309, 4-{2-[2-(2-hydroxyethyl)phenoxy]-5-(methylsulfonyl)phenyl}-6-methyl-1,6-dihydro-7H-pyrrolo[2,3-c]pyridin-7-one]
7 | 0.0711 | 8 | 5 | 0.103 | 9 | 0.0409 | CN(C)C1CCN(S(=O)(=O)c2ccc(OCC3CC3)c(-c3cn(C)c(=O)c4[nH]ccc34)c2)C1 (stereo not drawn) [Example 310, 4-[2-(cyclopropylmethoxy)-5-{[3-(dimethylamino)pyrrolidin-1-yl]sulfonyl}phenyl]-6-methyl-1,6-dihydro-7H-pyrrolo[2,3-c]pyridin-7-one]
8 | 0.019 | 56 | 32 | 0.0675 | 9 | 0.0141 | CCS(=O)(=O)c1ccc(OC2CCN(C(=O)OC(C)(C)C)CC2)c(-c2cn(C)c(=O)c3[nH]ccc23)c1 [Example 312, tert-butyl 4-[4-(ethylsulfonyl)-2-(6-methyl-7-oxo-6,7-dihydro-1H-pyrrolo[2,3-c]pyridin-4-yl)phenoxy]piperidine-1-carboxylate]
9 | 0.0061 | 5 | 4 | 0.0509 | 3 | 0.0158 | Cn1cc(-c2cc(S(=O)(=O)Nc3ccccc3)ccc2OCC2CC2)c2cc[nH]c2c1=O [Example 313, 4-(cyclopropylmethoxy)-3-(6-methyl-7-oxo-6,7-dihydro-1H-pyrrolo[2,3-c]pyridin-4-yl)-N-phenylbenzenesulfonamide]
10 | 0.231 | 34 | 4 | 0.16 | 11 | 0.0376 | Cn1cc(-c2cc(-c3cccnc3)ccc2OCC2CC2)c2cc[nH]c2c1=O [Example 315, 4-[2-(cyclopropylmethoxy)-5-(pyridin-3-yl)phenyl]-6-methyl-1,6-dihydro-7H-pyrrolo[2,3-c]pyridin-7-one]
11 | 0.0036 | 88 | 115 | 0.0168 | 83 | 0.0067 | CCS(=O)(=O)c1ccc(Oc2cccc(CO)c2)c(-c2cn(C)c(=O)c3[nH]ccc23)c1 [Example 317, 4-{5-(ethylsulfonyl)-2-[3-(hydroxymethyl)phenoxy]phenyl}-6-methyl-1,6-dihydro-7H-pyrrolo[2,3-c]pyridin-7-one]
12 | 0.625 | 35 | 24 | > 3 | 13 | 0.346 | Cn1cc(-c2ccc(OCC3CC3)c(-c3cn(C)c(=O)c4[nH]ccc34)c2)cn1 [Example 318, 4-[2-(cyclopropylmethoxy)-5-(1-methyl-1H-pyrazol-4-yl)phenyl]-6-methyl-1,6-dihydro-7H-pyrrolo[2,3-c]pyridin-7-one]
13 | 0.0099 | 2 | 2 | 0.435 | 2 | 0.372 | Cn1cc(-c2cc(S(=O)(=O)N3CCc4ccccc43)ccc2Oc2ccc(F)cc2F)c2cc[nH]c2c1=O [Example 319, 4-[2-(2,4-difluorophenoxy)-5-(2,3-dihydro-1H-indol-1-ylsulfonyl)phenyl]-6-methyl-1,6-dihydro-7H-pyrrolo[2,3-c]pyridin-7-one]
14 | 0.0456 | > 120 | 57 | 0.0668 | > 120 | 0.181 | CCS(=O)(=O)c1ccc(Oc2ccc(F)cc2F)c(-c2cn(C)c(=O)c3[nH]ncc23)c1 [Example 322, 4-[2-(2,4-difluorophenoxy)-5-(ethylsulfonyl)phenyl]-6-methyl-1,6-dihydro-7H-pyrazolo[3,4-c]pyridin-7-one]
15 | 0.199 | 21 | 10 | 0.703 | 8 | 0.155 | Cn1cc(-c2cc(C3=CCN(C(=O)OC(C)(C)C)CC3)ccc2OCC2CC2)c2cc[nH]c2c1=O [Example 325, tert-butyl 4-[4-(cyclopropylmethoxy)-3-(6-methyl-7-oxo-6,7-dihydro-1H-pyrrolo[2,3-c]pyridin-4-yl)phenyl]-3,6-dihydropyridine-1(2H)-carboxylate]
16 | 0.272 | 112 | 5 | 0.286 | 27 | 0.145 | Cn1cc(-c2cc(-c3ccc(N)nc3)ccc2OCC2CC2)c2cc[nH]c2c1=O [Example 326, 4-[5-(6-aminopyridin-3-yl)-2-(cyclopropylmethoxy)phenyl]-6-methyl-1,6-dihydro-7H-pyrrolo[2,3-c]pyridin-7-one]
